Assay results published in patent US20210045385A1, “PYRIDAZINONE-SUBSTITUTED KETOXIMES AS HERBICIDES” (FMC Corporation, priority 2018, published 2021).

Tests used:
Format in all cases: in vivo
[1] = tested on: Italian ryegrass (Lolium mutiflorum); test: Test C preemergence, visual plant response rating
Method in brief: (§1)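 Compounds in a non-phytotoxic solvent with surfactant were applied as a directed soil spray preemergence or to 2–10 cm, one- to two-leaf plants postemergence, in loam–sand soil. After about 10 d in a greenhouse, injury was visually rated against untreated controls on a 0–100 scale (100 = complete control).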

[2] = tested on: pigweed (Amaranthus retroflexus); test: Test C preemergence, visual plant response rating
Method in brief: as §1

[3] = tested on: ragweed (common ragweed, Ambrosia artemisiifolia); test: Test C preemergence, visual plant response rating
Method in brief: as §1

[4] = tested on: barnyardgrass (Echinochloa crus-galli); test: Test C preemergence, visual plant response rating
Method in brief: as §1

kochia (Bassia scoparia) [5] = test: Test C preemergence, visual plant response rating
Method in brief: as §1

[6] = tested on: foxtail, giant (giant foxtail, Setaria faberi); test: Test C preemergence, visual plant response rating
Method in brief: as §1

rice (Oryza sativa) = test: Test D flooded paddy test, visual plant response rating; conditions: 250 g ai/ha, scale 0 to 100 (0 no effect, 100 complete control), 13 to 15 d
Method in brief: (§2)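 Plants were grown to the 2-leaf stage, pots flooded to 3 cm above soil, and compound applied directly into the paddy water, with the depth held throughout. After 13 to 15 d in a greenhouse, response was rated visually against untreated controls on a 0–100 scale (0 no effect, 100 complete control).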

[7] = tested on: sedge umbrella (small-flower umbrella sedge, Cyperus difformis); test: as above; conditions: 250 g ai/ha, scale 0 to 100 (0 no effect, 100 complete control), 13 to 15 d
Method in brief: as §2

[8] = tested on: duck salad (Heteranthera limosa); test: as above; conditions: 250 g ai/ha, scale 0 to 100 (0 no effect, 100 complete control), 13 to 15 d
Method in brief: as §2

[9] = tested on: barnyardgrass (Echinochloa crus-galli); test: as above; conditions: 250 g ai/ha, scale 0 to 100 (0 no effect, 100 complete control), 13 to 15 d
Method in brief: as §2

[10] = tested on: Italian ryegrass (Lolium mutiflorum); test: Test C postemergence, visual plant response rating
Method in brief: as §1

[11] = tested on: pigweed (Amaranthus retroflexus); test: Test C postemergence, visual plant response rating
Method in brief: as §1

corn (Zea mays) = test: Test C postemergence, visual plant response rating
Method in brief: as §1

[12] = tested on: wheat (Triticum aestivum); test: Test C postemergence, visual plant response rating
Method in brief: as §1

[13] = tested on: galium (catchweed bedstraw, Galium aparine); test: Test C postemergence, visual plant response rating
Method in brief: as §1

[14] = tested on: ragweed (common ragweed, Ambrosia artemisiifolia); test: Test C postemergence, visual plant response rating
Method in brief: as §1

[15] = tested on: blackgrass (Alopecurus myosuroides); test: Test C postemergence, visual plant response rating
Method in brief: as §1

[16] = tested on: barnyardgrass (Echinochloa crus-galli); test: Test C postemergence, visual plant response rating
Method in brief: as §1

kochia (Bassia scoparia) [17] = test: Test C postemergence, visual plant response rating
Method in brief: as §1

[18] = tested on: foxtail, giant (giant foxtail, Setaria faberi); test: Test C postemergence, visual plant response rating
Method in brief: as §1

[19] = Test C, 31 g ai/ha, 0 is no effect, 100 is complete control
[20] = Test C, 125 g ai/ha, 0 is no effect, 100 is complete control
[21] = Test C, postemergence, 125 g ai/ha

For `CO/N=C(/c1c(O)cnn(C)c1=O)c1ccc(F)c2ccccc12` [Compound 304], the “Ryegrass, Italian plant response rating (0 to 100 scale)” value (from here on “Ryegrass, Italian plant response rating”) [1, 19] was 0, the “Ryegrass, Italian plant response rating” value [1, 20] was 20 and the “Pigweed plant response rating (0 to 100 scale)” value (“Pigweed plant response rating” below) [2, 19] was 10. The “Pigweed plant response rating” value [2, 20] was 20, the “Ragweed plant response rating (0 to 100 scale)” value (“Ragweed plant response rating” for short) [3, 19] was 0 and the “Ragweed plant response rating” value [3, 20] was 40. For the same compound, the “Barnyardgrass plant response rating (0 to 100 scale)” value (from here on “Barnyardgrass plant response rating”) [4, 19] was 0, the “Barnyardgrass plant response rating” value [4, 20] was 0 and the “Kochia plant response rating (0 to 100 scale)” value (“Kochia plant response rating” below) (kochia (Bassia scoparia) [5]; [19]) was 0. The “Kochia plant response rating” value (kochia (Bassia scoparia) [5]; [20]) was 0, the “Foxtail, Giant plant response rating (0 to 100 scale)” value (“Foxtail, Giant plant response rating” below) [6, 19] was 0 and the “Foxtail, Giant plant response rating” value [6, 20] was 10. The “Plant response rating, Rice (Flood)” value (rice (Oryza sativa)) was 0, the “Plant response rating, Sedge, Umbrella (Flood)” value [7] was 0 and the “Plant response rating, Ducksalad (Flood)” value [8] was 0. For the same compound, the “Plant response rating, Barnyardgrass (Flood)” value [9] was 0, the “Ryegrass, Italian plant response rating” value ([10]; Postemergence, 31 g ai/ha) was 20 and the “Ryegrass, Italian plant response rating” value [10, 21] was 60. For the same compound, the “Pigweed plant response rating” value ([11]; Postemergence, 31 g ai/ha) was 50, the “Pigweed plant response rating” value [11, 21] was 80 and the “Corn plant response rating (0 to 100 scale)” value (“Corn plant response rating” below) (corn (Zea mays); Postemergence, 31 g ai/ha) was 10. The “Corn plant response rating” value (corn (Zea mays); [21]) was 20, the “Wheat plant response rating (0 to 100 scale)” value (from here on “Wheat plant response rating”) ([12]; Postemergence, 31 g ai/ha) was 0 and the “Wheat plant response rating” value [12, 21] was 0. The “Galium plant response rating (0 to 100 scale)” value (“Galium plant response rating” below) ([13]; Postemergence, 31 g ai/ha) was 10, the “Galium plant response rating” value [13, 21] was 80 and the “Ragweed plant response rating” value ([14]; Postemergence, 31 g ai/ha) was 0. For the same compound, the “Ragweed plant response rating” value [14, 21] was 10, the “Blackgrass plant response rating (0 to 100 scale)” value (“Blackgrass plant response rating” below) ([15]; Postemergence, 31 g ai/ha) was 0 and the “Blackgrass plant response rating” value [15, 21] was 0. The “Barnyardgrass plant response rating” value ([16]; Postemergence, 31 g ai/ha) was 0, the “Barnyardgrass plant response rating” value [16, 21] was 0 and the “Kochia plant response rating” value (kochia (Bassia scoparia) [17]; Postemergence, 31 g ai/ha) was 30. For the same compound, the “Kochia plant response rating” value (kochia (Bassia scoparia) [17]; [21]) was 50, the “Foxtail, Giant plant response rating” value ([18]; Postemergence, 31 g ai/ha) was 0 and the “Foxtail, Giant plant response rating” value [18, 21] was 20.

In the case of `CO/N=C(/c1cc(F)cc(F)c1C)c1c(O)c(C)nn(C)c1=O` [Compound 305], the “Ryegrass, Italian plant response rating” value ([1]; 125 g ai/ha) is reported as 30, the “Ryegrass, Italian plant response rating” value [1, 19] is reported as 0 and the “Pigweed plant response rating” value ([2]; 125 g ai/ha) is reported as 70. For the same compound, the “Pigweed plant response rating” value [2, 19] was 30, the “Ragweed plant response rating” value ([3]; 125 g ai/ha) was 20 and the “Ragweed plant response rating” value [3, 19] was 20. The “Barnyardgrass plant response rating” value ([4]; 125 g ai/ha) was 20, the “Barnyardgrass plant response rating” value [4, 19] was 10 and the “Kochia plant response rating” value (kochia (Bassia scoparia) [5]; 125 g ai/ha) was 30. For the same compound, the “Kochia plant response rating” value (kochia (Bassia scoparia) [5]; [19]) was 10, the “Foxtail, Giant plant response rating” value ([6]; 125 g ai/ha) was 30 and the “Foxtail, Giant plant response rating” value [6, 19] was 10. For the same compound, the “Plant response rating, Rice (Flood)” value (rice (Oryza sativa)) was 0, the “Plant response rating, Sedge, Umbrella (Flood)” value [7] was 0 and the “Plant response rating, Ducksalad (Flood)” value [8] was 0. The “Plant response rating, Barnyardgrass (Flood)” value [9] was 0, the “Ryegrass, Italian plant response rating” value ([10]; Postemergence, 31 g ai/ha) was 10 and the “Ryegrass, Italian plant response rating” value [10, 21] was 80. For the same compound, the “Pigweed plant response rating” value ([11]; Postemergence, 31 g ai/ha) was 60, the “Pigweed plant response rating” value [11, 21] was 90 and the “Corn plant response rating” value (corn (Zea mays); Postemergence, 31 g ai/ha) was 0. For the same compound, the “Corn plant response rating” value (corn (Zea mays); [21]) was 0, the “Wheat plant response rating” value ([12]; Postemergence, 31 g ai/ha) was 0 and the “Wheat plant response rating” value [12, 21] was 0. For the same compound, the “Galium plant response rating” value ([13]; Postemergence, 31 g ai/ha) was 70, the “Galium plant response rating” value [13, 21] was 70 and the “Ragweed plant response rating” value ([14]; Postemergence, 31 g ai/ha) was 30. The “Ragweed plant response rating” value [14, 21] was 70, the “Blackgrass plant response rating” value ([15]; Postemergence, 31 g ai/ha) was 10 and the “Blackgrass plant response rating” value [15, 21] was 20. The “Barnyardgrass plant response rating” value ([16]; Postemergence, 31 g ai/ha) was 20, the “Barnyardgrass plant response rating” value [16, 21] was 30 and the “Kochia plant response rating” value (kochia (Bassia scoparia) [17]; Postemergence, 31 g ai/ha) was 50. The “Kochia plant response rating” value (kochia (Bassia scoparia) [17]; [21]) was 70, the “Foxtail, Giant plant response rating” value ([18]; Postemergence, 31 g ai/ha) was 30 and the “Foxtail, Giant plant response rating” value [18, 21] was 50.
